Measurements reported in patent US11814366B2, “Antiviral compounds and use thereof” (UNIVERSITA DEGLI STUDI DI SIENA, priority 2018, dated 2023).

Key:
[1] = Cell viability (MTS) assay, Huh-7 cells; assay type: cell-based; details: human, conditions of the DENV-2 assay (Table 6)
Experimental: Cell viability was measured using the MITS [3-(4,5-dimethylthiazol-2-yl)-5-(3 carboxy methoxy phenyl)-2-(4-sulfophenyl)-2H-tetrazolium] assay. Cell cultures were seeded in 96-well plates and were incubated with different concentrations of compounds of the invention in triplicate under the same experimental conditions described for the antiviral assays. Cell viability was determined using the CellTiter 96 Proliferation Assay Kit (Promega, Madison, WI, USA) according to the manufacturer's instructions. Absorbances were measured using a Microplate Reader (Model 680, BIORAD) at 490 nm. The effect on cell viability at different concentrations of the compound was expressed as a percentage, by comparing absorbances of treated cells with those of cells incubated with culture medium and equal volumes of vehicle. The 50% cytotoxic concentrations (CC50) and 95% confidence intervals (CIs) were determined using Prism software (Graph-Pad Software, San Diego, CA).

[2] = test system: DENV-2; assay: DENV plaque reduction assay on Huh-7 cells; assay type: cell-based, Dengue virus; details: for SI selectivity index: DENV-2, CC50 divided by EC50; for EC50: Dengue virus, DENV2, Huh-7, DENV-2 infected cells
Experimental: The effect of compounds on DENV infection was evaluated by plaque reduction assay. Huh-7 cells were pre-plated 24 h in advance in 24-well plates at a density of 10^5 cells. Concentrations of compounds ranging from 50 μM to 0.0001 μM in DMSO were mixed with DENV-2 (MOI 0.01 pfu/cell) and incubated for 1 hour at 37° C. The mixtures were subsequently added to the cells, which were then incubated at 37° C. for 2 h. The virus inoculum was then removed and the cells washed and overlaid with a medium containing 1.2% methylcellulose (Sigma). After further incubation at 37° C. for 72 h cells were fixed and stained with 0.1% crystal violet in 20% ethanol and viral plaques counted. The effective concentration producing 50% reduction in plaque formation (EC50) were determined using Prism software by comparing drug-treated wells with wells treated with medium and DMSO. The selectivity index (SI) was calculated by dividing the CC50 by the EC50 value.

[3] = test system: HIV Strain NL4-3; assay: HIV-1 inhibition assay, strain NL4-3, TZM-bl cells, CPRG readout; assay type: cell-based
Experimental: The human TZM-bl indicator cell line (obtained from the NIH AIDS reagents program, cat. Nr 8129, www.aidsreagent.org) was maintained at 37° C. and 5% CO2 in Dulbecco's modified Eagle's medium (DMEM) medium containing 10% fetal bovine serum, 50 μg/ml penicillin, and 50 μg/ml streptomycin. The HIV-1 laboratory strains NL (AD8) (NIH AIDS reagents program, cat. Nr, 11346) and NL4.3 (NIH AIDS reagents program, cat. Nr. 114) were titrated as previously reported by Tiberi et al (2014). Briefly, serial 5-fold dilutions of each virus were made in quadruplicate wells in 96-well culture plates, in a total volume of 100 μl of growth medium (DMEM), for a total of 8 dilution steps. Freshly trypsinized cells (20,000 cells in 100 μl of growth medium containing 75 μg/mL DEAE-dextran) were added to each well, and the plates were incubated at 37° C. in a humidified 5% CO2-95% air environment. After 48 h of incubation, the medium was removed and viral infection was quantified using a β-galactosidase (CPRG) assay (Roche). Twenty thousand TZM-bl cells/well were seeded in 96-well plates in complete DMEM supplemented with 30 μg/ml DEAE-dextran (Sigma-Aldrich). Three hundred times the 50% tissue culture infective dose (TCID50)/ml of each strain was pretreated for 1 h at 37° C. with six serial dilutions (10000 nM, 2000 nM, 400 nM, 80 nM, 16 nM, 3.2 nM) and then added to the cells. Vehicle (0.1% dimethyl sulfoxide [DMSO])-treated cells served as a negative control. […] After 2 days, viral infection was quantified using a CPRG assay (Roche cat nr 11379119103). The inhibitory curves were fitted by nonlinear regression, allowing for the calculation of the 50% effective concentration (EC50) using the Prism software. To evaluate the cell toxicity of the compounds, the metabolic XTT [2,3-bis-(2-methoxy-4-nitro-5-sulfophenyl)-2H-tetrazolium-5-carboxanilide] test (Sigma-Aldrich) was performed according to the manufacturer's instructions.

[4] = Cytotoxicity, XTT test; details: human
[5] = test system: HIV Strain AD8; assay: HIV-1 inhibition assay, strain NL(AD8), TZM-bl cells, CPRG readout; assay type: cell-based
[6] = test system: HSV-2; assay: HSV-2 plaque reduction assay on Vero cells; assay type: cell-based, Herpes 2 virus (HSV-2); details: for SI selectivity index: HSV-2, CC50 divided by EC50; for EC90 / EC50: Human alphaherpesvirus 2, Vero, HSV-2 infected cells; for EC90: 90% effective concentration; for EC50: compound mixed with virus 1 hour at 37° C.
[7] = test system: H1N1; assay: H1N1 inhibition assay on MDCK cells; assay type: cell-based, Influenza virus H1N1; details: for SI selectivity index: H1N1, CC50 divided by EC50; for EC50 / EC90: Influenza A virus, MDCK, H1N1 infected cells; for EC50: read-out: EC50; for EC90: read-out: EC90
Experimental: MDCK cells were pre-plated in 96-well plates. The following day, concentrations of compounds ranging from 50 μM to 0.0001 μM in DMSO were mixed with H1N1 (MOI 0.05 pfu/cell) and incubated for 1 hour at 37° C. The mixtures were subsequently added to the cells for 1 h at 37° C., after a washout, cells were overlaid with MEM for 16 h at 37° C. Cells were then fixed and subjected to specific immunostaining using a Flu A monoclonal antibody (Merck 5001) in order to visualize infected cells. EC50 were calculated by comparing numbers of infected cells in treated and untreated wells. The effective concentration producing 50% reduction in plaque formation (EC50) was determined using Prism software. The selectivity index (SI) was calculated by dividing the CC50 by the EC50 value.

[8] = test system: ZIKAV; assay: ZIKA virus plaque reduction assay on Vero cells; assay type: cell-based, Zika virus (PRVABC59); details: for SI selectivity index: ZIKAV, CC50 divided by EC50; for EC50 / EC90: Zika virus, Vero, ZIKAV infected cells
[9] = in vitro; details: African green monkey
[10] = in vitro; details: dog
[11] = Human immunodeficiency virus 1, NL43, virus pretreated 1 h at 37° C. with compound
[12] = CC50, conditions of the HSV-2 assay (Table 2)
[13] = CC50, conditions of the ZIKAV assay (Table 3)
[14] = virus pretreated 1 h at 37° C. with compound

Compound: O=C1NC(=S)N(CCc2ccc(O)cc2)C(=O)/C1=C\c1ccc(-c2ccc(C(=O)O)c(O)c2)[nH]1 [Compound 15f, (Z)-2-hydroxy-4-(5-((1-(4-hydroxyphenethyl)-4,6-dioxo-2-thioxotetrahydropyrimidin-5(2H)-ylidene)methyl)-1H-pyrrol-2-yl)benzoic Acid]
- CC50 [1]: 28 µM
- SI selectivity index [2]: 3.6
- EC50 [2]: 7.8 µM

Compound: Cc1nnc(C(=O)NC(C)(C)c2nc(C(=O)NCc3ccc(F)cc3)c(O)c(=O)n2C)o1 [Ral, raltegravir, reference compound]
- EC50 [3, 11]: 0.021 µM
- CC50 [4]: > 20 µM

Compound: O=C(O)c1ccc(-c2ccc(/C=C3\SC(=S)N(Cc4ccc(Cl)cc4)C3=O)[nH]2)cc1O [Compound 7b, (Z)-4-(5-((3-(4-chlorobenzyl)-4-oxo-2-thioxothiazolidin-5-ylidene)methyl)-1H-pyrrol-2-yl)-2-hydroxybenzoic Acid]
- EC50 ([5]; Human immunodeficiency virus 1, virus pretreated 1 h at 37° C. with compound): 0.532 µM
- CC50 ([4]; TZM-bl cells): > 20 µM

Compound: O=C1NC(=S)N(Cc2ccccc2)C(=O)/C1=C\c1ccc(-c2ccc(C(=O)O)c(O)c2)[nH]1 [Compound 15a, (Z)-4-(5-((1-benzyl-4,6-dioxo-2-thioxotetrahydropyrimidin-5(2H)-ylidene)methyl)-1H-pyrrol-2-yl)-2-hydroxybenzoic Acid]
- EC50 [3, 11]: 0.217 µM
- CC50 [4]: > 20 µM

Compound: O=C1NC(=S)N(CCc2ccccc2)C(=O)/C1=C/c1ccc(-c2ccc(-c3nnn[nH]3)cc2)[nH]1 [Compound 15c, (Z)-5-((5-(4-(1H-tetrazol-5-yl)phenyl)-1H-pyrrol-2-yl)methylene)-dihydro-3-henethyl-2-thioxopyrimidine-4,6(1H,5H)-dione]
- SI selectivity index [6]: >1435
- EC90 [6]: 0.618 µM
- EC50 [6]: 0.209 µM
- SI selectivity index [7]: >379
- EC50 [7]: 0.793 µM
- EC90 [7]: 1.76 µM
- CC50 [1]: 70 µM
- SI selectivity index [8]: >12000
- EC50 [8]: 0.0258 µM
- EC90 [8]: 0.365 µM
- CC50 [9, 12]: > 300 µM
- CC50 [9, 13]: > 300 µM
- SI selectivity index [2]: 20.6
- EC50 [2]: 3.4 µM
- CC50 [10]: > 300 µM

Compound: N#Cc1ccc(-c2ccc(/C=C3\C(=O)NC(=S)N(CCc4ccccc4)C3=O)[nH]2)cc1 [Compound 15d, 4-(5-((Z)-(tetrahydro-4,6-dioxo-3-phenethyl-2-thioxopyrimidin-5(6H)-lidene)methyl)-1H-pyrrol-2-yl)benzonitrile]
- SI selectivity index [6]: >8.7
- EC90 [6]: 88.2 µM
- EC50 [6]: 34.5 µM
- SI selectivity index [7]: >12
- EC50 [7]: 25 µM
- EC90 [7]: 372 µM
- SI selectivity index [8]: >272.7
- EC50 [8]: 1.11 µM
- EC90 [8]: 26.6 µM
- CC50 [9, 12]: > 300 µM
- CC50 [9, 13]: > 300 µM
- CC50 [10]: > 300 µM

Compound: maraviroc [reference compound]
- EC50 [3, 14]: > 20 µM
- EC50 [5, 14]: 0.0367 µM

Compound: O=C(O)c1ccc(-c2ccc(CC3C(=O)NC(=S)N(CCc4ccccc4)C3=O)[nH]2)cc1O (stereo not drawn) [Compound 18, 4-(5-((hexahydro-4,6-dioxo-1-phenethyl-2-thioxopyrimidin-5-yl)methyl)-1H-pyrrol-2-yl)-2-hydroxybenzoic Acid]
- SI selectivity index [6]: >417.2
- EC90 [6]: 0.128 µM
- EC50 [6]: 0.712 µM
- SI selectivity index [7]: >238
- EC50 [7]: 1.26 µM
- EC90 [7]: 14.9 µM
- SI selectivity index [8]: >849.8
- EC50 [8]: 0.0353 µM
- EC90 [8]: 0.308 µM
- CC50 [9, 12]: > 300 µM
- CC50 [9, 13]: > 300 µM
- CC50 [10]: > 300 µM

Compound: O=C1NC(=S)NC(=O)C1=Cc1ccc(-c2cc(C(F)(F)F)ccc2Cl)[nH]1 [Compound 17a, 5-((5-(2-chloro-5-(trifluoromethyl)phenyl)-1H-pyrrol-2-yl)methylene)-2-thioxodihydropyrimidine-4,6(1H,5H)-dione]
- CC50 [4]: > 20 µM

Compound: O=C1NC(=S)NC(=O)C1=Cc1ccc(-c2ccc(C(=O)O)c(O)c2)[nH]1 [Compound 17b, 4-(5-((4,6-dioxo-2-thioxotetrahydropyrimidin-5(2H)-ylidene)methyl)-1H-pyrrol-2-yl)-2-hydroxybenzoic Acid]
- EC50 [3, 11]: 0.16 µM
- SI selectivity index [6]: >429.8
- EC90 [6]: 7.47 µM
- EC50 [6]: 0.698 µM
- CC50 [9, 12]: > 300 µM
- CC50 [4]: > 20 µM

Compound: O=C1NC(=S)N(Cc2ccccn2)C(=O)/C1=C\c1ccc(-c2ccc(-c3nnn[nH]3)cc2)[nH]1 [Compound 15p, (Z)-5-((5-(4-(1H-tetrazol-5-yl)phenyl)-1H-pyrrol-2-yl)methylene)-1-(pyridin-2-ylmethyl)-2-thioxodihydropyrimidine-4,6(1H,5H)-dione]
- CC50 [1]: 89 µM
- SI selectivity index [2]: 7.3
- EC50 [2]: 12.2 µM
